Test results: patent US20220305012A1, “L[…] TREATING SLEEP ISSUES” (EISAI R&D MANAGEMENT CO., LTD., priority 2019, published 2022)
Read-outs that look alike come from different tables or passages of the source.

Key:
Type in all cases: in vivo, human
[1] = system: Subjects Having Insomnia Disorder; test: Example 1: Insomnia Severity Index Daytime Functioning (Items 4-7)
Source text: (§1) As used herein, the term “Insomnia Severity Index”, abbreviated as “ISI”, is an index calculated using a 7-item, self-report questionnaire assessing the nature, severity, and impact of insomnia (see Bastien, C. H., et al. “Validation of the Insomnia Severity Index as an outcome measure for insomnia research.” Sleep Med. 2001; 2(4): 297-307). The questionnaire evaluates: (1) severity of sleep onset; (2) sleep maintenance; (3) early morning awakening problems; (4) sleep dissatisfaction; (5) interference caused by sleep difficulties with daytime functioning; (6) noticeability of sleep problems by others; and (7) distress caused by the sleep difficulties. A 5-point scale is used to rate each item (0=no problem to 4=very severe problem) yielding a total score from 0 to 28. Total ISI score (items (1)-(7)) and daytime functioning (items (4)-(7)) are analyzed separately.
(§2) Month 1 Assessment: Standard safety assessments were performed on the subject. A blood sample was collected for determination of plasma concentration of lemborexant and its metabolites, and the ISI, FSS, PGI-Insomnia, EQ-5D-3L, and eC-SSR were completed.
(§3) Month 3 Assessment: All assessments conducted at the Month 1 Assessment were repeated.
(§4) Month 6 Assessment: All assessments conducted at the Month 1 Assessment were repeated, and subjects completed the WPAI-GH.
In addition to the aforementioned study endpoints, the study included several additional secondary endpoints: • Mean change from study baseline of subjective sleep onset latency, subjective sleep efficiency, subjective wake after sleep onset, and subjective total sleep time at the beginning of treatment (mean of the 7 nights after the first dose in Period 1), at Month 1 and at Month 3. • Mean change from study baseline of subjective total sleep time at Month 6. • Change from study baseline in daytime functioning, assessed as the total score from the 4 items on daytime functioning, on the Insomnia Severity Index, at Months 1, 3, and 6.

[2] = system: Subjects Having Insomnia Disorder; test: Example 1: Insomnia Severity Index Total Score (Items 1-7)
Source text: as §1, §2, §3, §4

[3] = Example 1: plasma concentrations of lemborexant and metabolites; conditions: for concentration at 1 month / concentration at 3 month / concentration at 6 month: human, plasma
Description: as §2, §3, §4

[4] = system: Subjects Having Insomnia Disorder; test: Example 3: proportion of sWASO responders (pooled Examples 1 and 2)
Description: (§5) The data collected in studies described in Example 1 and Example 2 were pooled and the response of each subject was analyzed.

[5] = system: Subjects Having Insomnia Disorder; test: Example 3: proportion of subjects whose ISI Total Score decreased by 7 or more points (pooled); conditions: for percentage of subjects whose ISI Total Score decreased by 7 or more points: end of month 1, pooled Examples 1 and 2; for Total Insomnia Severity Index Score Decreased by ≥7 Points, Difference of proportion vs. Placebo / Total Insomnia Severity Index Score Decreased from Baseline to Month 1 by ≥7 Points, Responder No, n (%) / Total Insomnia Severity Index Score Decreased from Baseline to Month 1 by ≥7 Points, Responder Yes, n (%): Month 1
Description: as §5
Table 32 provides the summary and analysis of responders, defined as those subjects whose Total ISI Score decreased at the end of month 1 by 7 or more points compared to baseline. Table 33 provides the summary and analysis of responders, defined as those subjects whose ISI Total Score decreased compared to baseline and was less than 10 at month 1.

[6] = 5 mg, change from Study Baseline after 1 Month
[7] = 5 mg, change from Study Baseline after 3 Months
[8] = 10 mg, change from Study Baseline after 1 Month
[9] = 10 mg, change from Study Baseline after 3 Months
[10] = First 7 Days, Lemborexant 10 mg

## Cc1ncc(OC[C@@]2(c3cccc(F)c3)C[C@H]2C(=O)Nc2ccc(F)cn2)c(C)n1 [Lemborexant, (1R,2S)-2-(((2,4-dimethylpyrimidin-5-yl)oxy)methyl)-2-(3-fluorophenyl)-N-(5-fluoropyridin-2-yl)cyclopropanecarboxamide]
[1]; 5 mg, Month 1
  ISI Daytime Functioning (Items 4-7), Mean: 7.2
  ISI Daytime Functioning (Items 4-7), Median: 7.0
[1]; 5 mg, Month 3
  ISI Daytime Functioning (Items 4-7), Mean: 6.2
  ISI Daytime Functioning (Items 4-7), Median: 6.0
[1]; 5 mg, Month 6
  ISI Daytime Functioning (Items 4-7), Mean: 5.4
  ISI Daytime Functioning (Items 4-7), Median: 5.0
  ISI Daytime Functioning Change from Study Baseline, Mean: −6.0
  ISI Daytime Functioning Change from Study Baseline, Median: −6.0
  ISI Daytime Functioning LSM treatment difference: Lemborexant/Placebo: −1.30
[1]; 5 mg, Study Baseline
  ISI Daytime Functioning (Items 4-7), Mean: 11.4
  ISI Daytime Functioning (Items 4-7), Median: 11.0
[1]; 5 mg, after 1 Month
  ISI Daytime Functioning Change from Study Baseline, Mean: −4.1
  ISI Daytime Functioning Change from Study Baseline, Median: −3.0
[1]; 5 mg, after 3 Months
  ISI Daytime Functioning Change from Study Baseline, Mean: −5.2
  ISI Daytime Functioning Change from Study Baseline, Median: −5.0
[1]; [6]
  ISI Daytime Functioning LSM treatment difference: Lemborexant/Placebo: −0.71
[1]; [7]
  ISI Daytime Functioning LSM treatment difference: Lemborexant/Placebo: −1.16
[1]; 10 mg, Month 1
  ISI Daytime Functioning (Items 4-7), Mean: 7.0
  ISI Daytime Functioning (Items 4-7), Median: 7.0
[1]; 10 mg, Month 3
  ISI Daytime Functioning (Items 4-7), Mean: 6.0
  ISI Daytime Functioning (Items 4-7), Median: 5.0
[1]; 10 mg, Month 6
  ISI Daytime Functioning (Items 4-7), Mean: 5.4
  ISI Daytime Functioning (Items 4-7), Median: 5.0
  ISI Daytime Functioning Change from Study Baseline, Mean: −5.7
  ISI Daytime Functioning Change from Study Baseline, Median: −6.0
  ISI Daytime Functioning LSM treatment difference: Lemborexant/Placebo: −1.32
[1]; 10 mg, Study Baseline
  ISI Daytime Functioning (Items 4-7), Mean: 11.0
  ISI Daytime Functioning (Items 4-7), Median: 11.0
[1]; 10 mg, after 1 Month
  ISI Daytime Functioning Change from Study Baseline, Mean: −4.2
  ISI Daytime Functioning Change from Study Baseline, Median: −4.0
[1]; 10 mg, after 3 Months
  ISI Daytime Functioning Change from Study Baseline, Mean: −5.2
  ISI Daytime Functioning Change from Study Baseline, Median: −5.0
[1]; [8]
  ISI Daytime Functioning LSM treatment difference: Lemborexant/Placebo: −0.94
[1]; [9]
  ISI Daytime Functioning LSM treatment difference: Lemborexant/Placebo: −1.36
[2]; 5 mg and 10 mg, at the equivalent timepoint (Tables 6 and 7: daytime functioning and total score)
  insomnia severity index score compared with placebo: greater decrease in insomnia severity index score than subjects treated with placebo
[2]; 5 mg, Month 1
  ISI Total Score (Items 1-7), Mean: 12.6
  ISI Total Score (Items 1-7), Median: 12.0
[2]; 5 mg, Month 3
  ISI Total Score (Items 1-7), Mean: 10.8
  ISI Total Score (Items 1-7), Median: 10.0
[2]; 5 mg, Month 6
  ISI Total Score (Items 1-7), Mean: 9.6
  ISI Total Score (Items 1-7), Median: 9.0
[2]; 5 mg, Study Baseline
  ISI Total Score (Items 1-7), Mean: 19.6
  ISI Total Score (Items 1-7), Median: 19.0
[2]; 5 mg, after 1 Month
  ISI Total Score Change from Study Baseline, Mean: −7.1
  ISI Total Score Change from Study Baseline, Median: −6.0
[2]; 5 mg, after 3 Months
  ISI Total Score Change from Study Baseline, Mean: −8.6
  ISI Total Score Change from Study Baseline, Median: −8.0
[2]; 5 mg, after 6 Months
  ISI Total Score Change from Study Baseline, Mean: −9.9
  ISI Total Score Change from Study Baseline, Median: −10.0
[2]; [6]
  ISI Total Score LSM treatment difference: Lemborexant/Placebo: −1.47
[2]; [7]
  ISI Total Score LSM treatment difference: Lemborexant/Placebo: −2.02
[2]; 5 mg, change from Study Baseline after 6 Months
  ISI Total Score LSM treatment difference: Lemborexant/Placebo: −2.10
[2]; 10 mg, Month 1
  ISI Total Score (Items 1-7), Mean: 12.0
  ISI Total Score (Items 1-7), Median: 12.0
[2]; 10 mg, Month 3
  ISI Total Score (Items 1-7), Mean: 10.2
  ISI Total Score (Items 1-7), Median: 10.0
[2]; 10 mg, Month 6
  ISI Total Score (Items 1-7), Mean: 9.4
  ISI Total Score (Items 1-7), Median: 9.0
[2]; 10 mg, Study Baseline
  ISI Total Score (Items 1-7), Mean: 19.0
  ISI Total Score (Items 1-7), Median: 19.0
[2]; 10 mg, after 1 Month
  ISI Total Score Change from Study Baseline, Mean: −7.2
  ISI Total Score Change from Study Baseline, Median: −6.0
[2]; 10 mg, after 3 Months
  ISI Total Score Change from Study Baseline, Mean: −8.9
  ISI Total Score Change from Study Baseline, Median: −9.0
[2]; 10 mg, after 6 Months
  ISI Total Score Change from Study Baseline, Mean: −9.8
  ISI Total Score Change from Study Baseline, Median: −9.5
[2]; [8]
  ISI Total Score LSM treatment difference: Lemborexant/Placebo: −1.87
[2]; [9]
  ISI Total Score LSM treatment difference: Lemborexant/Placebo: −2.57
[2]; 10 mg, change from Study Baseline after 6 Months
  ISI Total Score LSM treatment difference: Lemborexant/Placebo: −2.35
[3]; 10 mg, lemborexant 10 mg dose, Month 1, read-out: Plasma concentration, Mean (SD)
  concentration at 1 month: 16.3 ng/mL
[3]; 10 mg, lemborexant 10 mg dose, Month 1, read-out: Plasma concentration, Median
  concentration at 1 month: 15.1 ng/mL
[3]; 10 mg, lemborexant 10 mg dose, Month 3, read-out: Plasma concentration, Mean (SD)
  concentration at 3 month: 15.6 ng/mL
[3]; 10 mg, lemborexant 10 mg dose, Month 3, read-out: Plasma concentration, Median
  concentration at 3 month: 15.1 ng/mL
[3]; 10 mg, lemborexant 10 mg dose, Month 6, read-out: Plasma concentration, Mean (SD)
  concentration at 6 month: 15.2 ng/mL
[3]; 10 mg, lemborexant 10 mg dose, Month 6, read-out: Plasma concentration, Median
  concentration at 6 month: 14.5 ng/mL
[3]; oral, 5 mg, lemborexant 5 mg dose, Month 1, read-out: Plasma concentration, Mean (SD)
  concentration at 1 month: 9 ng/mL
[3]; oral, 5 mg, lemborexant 5 mg dose, Month 1, read-out: Plasma concentration, Median
  concentration at 1 month: 7.6 ng/mL
[3]; oral, 5 mg, lemborexant 5 mg dose, Month 3, read-out: Plasma concentration, Mean (SD)
  concentration at 3 month: 8.4 ng/mL
[3]; oral, 5 mg, lemborexant 5 mg dose, Month 3, read-out: Plasma concentration, Median
  concentration at 3 month: 7.7 ng/mL
[3]; oral, 5 mg, lemborexant 5 mg dose, Month 6, read-out: Plasma concentration, Mean (SD)
  concentration at 6 month: 7.9 ng/mL
[3]; oral, 5 mg, lemborexant 5 mg dose, Month 6, read-out: Plasma concentration, Median
  concentration at 6 month: 6.9 ng/mL
[3]; lemborexant 5 mg dose, Month 1
  Plasma concentration BLQ (<0.0500 ng/mL): 31 (10.5) n (%)
[3]; lemborexant 5 mg dose, Month 3
  Plasma concentration BLQ (<0.0500 ng/mL): 34 (12.6) n (%)
[3]; lemborexant 5 mg dose, Month 6
  Plasma concentration BLQ (<0.0500 ng/mL): 45 (18.2) n (%)
[3]; lemborexant 10 mg dose, Month 1
  Plasma concentration BLQ (<0.0500 ng/mL): 21 (7.4) n (%)
[3]; lemborexant 10 mg dose, Month 3
  Plasma concentration BLQ (<0.0500 ng/mL): 29 (11.2) n (%)
[3]; lemborexant 10 mg dose, Month 6
  Plasma concentration BLQ (<0.0500 ng/mL): 33 (14.6) n (%)
[4]; First 7 Days, Lemborexant 5 mg
  Subjective Wake After Sleep Onset Responder, No, n (%): 420 (81.1) n (%)
  Subjective Wake After Sleep Onset Responder, Yes, n (%): 91 (17.6) n (%)
  Subjective Wake After Sleep Onset Responders, Difference of proportion vs. Placebo: 6.15
[4]; [10]
  Subjective Wake After Sleep Onset Responder, No, n (%): 411 (79.5) n (%)
  Subjective Wake After Sleep Onset Responder, Yes, n (%): 100 (19.3) n (%)
  Subjective Wake After Sleep Onset Responders, Difference of proportion vs. Placebo: 7.84
[4]; Month 1, Lemborexant 5 mg
  Subjective Wake After Sleep Onset Responder, No, n (%): 372 (71.8) n (%)
  Subjective Wake After Sleep Onset Responder, Yes, n (%): 121 (23.4) n (%)
  Subjective Wake After Sleep Onset Responders, Difference of proportion vs. Placebo: 5.61
[4]; Month 1, Lemborexant 10 mg
  Subjective Wake After Sleep Onset Responder, No, n (%): 368 (71.2) n (%)
  Subjective Wake After Sleep Onset Responder, Yes, n (%): 122 (23.6) n (%)
  Subjective Wake After Sleep Onset Responders, Difference of proportion vs. Placebo: 5.96
[4]; both doses, first 7 days and end of month 1, responder: sWASO of 60 or less minutes and reduction of at least 10 minutes, baseline >60 minutes (Table 31)
  proportion of sWASO responders compared with placebo: statistically significantly superior
[5]; 5 mg
  percentage of subjects whose ISI Total Score decreased by 7 or more points: 47.3%
[5]; 10 mg
  percentage of subjects whose ISI Total Score decreased by 7 or more points: 47.8%
[5]; Lemborexant 5 mg
  Total Insomnia Severity Index Score Decreased by ≥7 Points, Difference of proportion vs. Placebo: 13.12
  Total Insomnia Severity Index Score Decreased from Baseline to Month 1 by ≥7 Points, Responder No, n (%): 283 (48.6) n (%)
  Total Insomnia Severity Index Score Decreased from Baseline to Month 1 by ≥7 Points, Responder Yes, n (%): 275 (47.3) n (%)
[5]; Lemborexant 10 mg
  Total Insomnia Severity Index Score Decreased by ≥7 Points, Difference of proportion vs. Placebo: 13.61
  Total Insomnia Severity Index Score Decreased from Baseline to Month 1 by ≥7 Points, Responder No, n (%): 261 (44.7) n (%)
  Total Insomnia Severity Index Score Decreased from Baseline to Month 1 by ≥7 Points, Responder Yes, n (%): 279 (47.8) n (%)
[5]; both doses, month 1 (Table 32)
  difference of proportion of responders (ISI Total Score decreased by 7 or more points) versus placebo: statistically significant
